Test results from US10456467B2, “Nanoparticle delivery system for targeted anti-obesity treatment” (UNIVERSITY OF WYOMING, priority 2014, dated 2019).

Key:
[1] = CAP release (dissolution) in pH 7.4 phosphate buffer, Vankel dissolution apparatus; type: physicochemical; details: 37° C.
Text: The cumulative release (%) was plotted against time. Cumulative % Release=C1V1×CF/100×C2
C1=Concentration of capsaicin in the final solution (g/ml);
C2=Drug content (mgs) used for dissolution study;
CF=Correction Factor, which is an accommodation for the change in volume due to sampling; and
V1=Volume of dissolution medium (ml)

[2] = target: T1, TRPV1 channel protein (CAP receptor) (Homo sapiens, UniProt Q8NER1); assay: Fura-2 Ca2+ influx imaging in HEK293 cells expressing TRPV1; type: cell-based; details: 1 μM CAP or equivalent, 22 degrees Celsius, FIG. 4
T1 construct: expressed in transfected cells; host or cells: HEK293
T1 sequence (Q8NER1 whole entry): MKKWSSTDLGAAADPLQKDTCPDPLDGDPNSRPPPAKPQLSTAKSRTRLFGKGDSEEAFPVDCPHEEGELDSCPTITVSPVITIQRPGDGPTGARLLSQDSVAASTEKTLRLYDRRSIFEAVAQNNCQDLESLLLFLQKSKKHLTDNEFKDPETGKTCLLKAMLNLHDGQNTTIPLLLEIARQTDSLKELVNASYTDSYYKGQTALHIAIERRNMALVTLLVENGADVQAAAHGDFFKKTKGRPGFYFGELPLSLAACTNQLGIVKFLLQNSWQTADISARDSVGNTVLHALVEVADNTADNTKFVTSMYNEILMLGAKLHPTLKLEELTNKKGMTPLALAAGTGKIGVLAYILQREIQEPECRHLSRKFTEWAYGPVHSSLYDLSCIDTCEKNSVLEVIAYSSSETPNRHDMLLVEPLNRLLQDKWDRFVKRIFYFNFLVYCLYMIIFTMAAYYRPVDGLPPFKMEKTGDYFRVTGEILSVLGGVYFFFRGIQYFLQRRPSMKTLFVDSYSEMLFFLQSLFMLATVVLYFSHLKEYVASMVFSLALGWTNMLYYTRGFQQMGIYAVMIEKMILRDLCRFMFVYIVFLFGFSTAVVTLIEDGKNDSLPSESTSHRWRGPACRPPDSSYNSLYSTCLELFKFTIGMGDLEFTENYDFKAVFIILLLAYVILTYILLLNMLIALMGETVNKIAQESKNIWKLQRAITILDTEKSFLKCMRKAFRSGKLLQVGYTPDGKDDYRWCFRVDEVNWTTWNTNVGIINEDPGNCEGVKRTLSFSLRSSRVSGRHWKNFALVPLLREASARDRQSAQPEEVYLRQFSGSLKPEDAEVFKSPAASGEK
Description: FIG. 4 is a graph 400 of the time to peak rise of Ca^2+ for PLGA coated CMN, pure CAP and MNPs containing no CAP, according to embodiments described herein. HEK293 cells expressing TRPV1 channel protein (CAP receptor) grown on coverslips were loaded with Fura-2 AM (2 μM) for 40 minutes at room temperature. Cells were washed and then viewed with a Leica DMI3000 B inverted microscope coupled to a Polychrome V digital imaging system with Imago CCD camera. Cells were continuously superfused (22 degrees Celsius) with 2 mM Ca^2+ containing normal extracellular solution (NES). The Ca^2+ influx due to the addition of pure capsaicin (1 μM), CMN or PCMN (equivalent of 1 μM CAP), was observed and measured as a function of fluorescence.

[3] = cited from earlier work

time of peak CAP concentration (cumulative release) ([1]; FIG. 3, 15 to 3000 minutes): around 500 minutes
course of CAP concentration after the peak ([1]; FIG. 3, up to 3000 minutes): steadily decrease
time at which rise in Ca2+ concentration begins [2]: approximately 175 seconds
time of peak rise in Ca2+ concentration [2]: about 300 seconds
SMILES: COc1cc(CNC(=O)CCCC/C=C/C(C)C)ccc1O [pure CAP, capsaicin]
effect on high fat diet-induced weight gain in the absence of the TRPV1 protein in adipose tissue ([3]; absence of TRPV1 protein in adipose tissue): does not inhibit high fat diet-induced weight gain
effect on high fat diet-induced weight gain ([3]; mouse model systems): inhibit high fat diet-induced weight gain
